Reference: the supplement of paper PMC13380429

How the values were obtained:
Conditions in all cases: 72 h
[1] = system: Calu-3; experiment: cell viability relative to DMSO; higher = less toxic
[2] = system: U2OS; experiment: as above
[3] = system: Vero E6; experiment: as above
[4] = system: HepG2; experiment: as above
[5] = system: Caco-2; experiment: as above
[6] = system: Calu-3; experiment: relative viability EC50 (midpoint between 100% and the lowest measured viability); higher = less toxic
[7] = system: U2OS; experiment: as above
[8] = system: Vero E6; experiment: as above
[9] = system: HepG2; experiment: as above
[10] = system: Caco-2; experiment: as above
[11] = system: Calu-3; experiment: drug sensitivity score (DSS) for viability; higher = more toxic; extreme values may be limits of the assay
[12] = system: U2OS; experiment: as above
[13] = system: Vero E6; experiment: as above
[14] = system: HepG2; experiment: as above
[15] = system: Caco-2; experiment: as above

Row | SMILES | cell viability ([1]; 1 nM) | cell viability ([1]; 10 nM) | cell viability ([1]; 100 nM) | cell viability ([1]; 1000 nM) | cell viability ([1]; 10000 nM) | cell viability ([2]; 1 nM) | cell viability ([2]; 10 nM) | cell viability ([2]; 100 nM) | cell viability ([2]; 1000 nM) | cell viability ([2]; 10000 nM) | cell viability ([3]; 1 nM) | cell viability ([3]; 10 nM) | cell viability ([3]; 100 nM) | cell viability ([3]; 1000 nM) | cell viability ([3]; 10000 nM) | cell viability ([4]; 1 nM) | cell viability ([4]; 10 nM) | cell viability ([4]; 100 nM) | cell viability ([4]; 1000 nM) | cell viability ([4]; 10000 nM) | cell viability ([5]; 1 nM) | cell viability ([5]; 10 nM) | cell viability ([5]; 100 nM) | cell viability ([5]; 1000 nM) | cell viability ([5]; 10000 nM) | relative viability EC50 [6] | relative viability EC50 [7] | relative viability EC50 [8] | relative viability EC50 [9] | relative viability EC50 [10] | drug sensitivity score [11] | drug sensitivity score [12] | drug sensitivity score [13] | drug sensitivity score [14] | drug sensitivity score [15]
1 | Cc1cccc(Cc2c[nH]cn2)c1C [detomidine] | 99.7% | 93% | 102% | 103% | 102% | 101% | 98.2% | 103% | 96.5% | 101% | 91% | 101% | 90.5% | 102% | 106% | 99.4% | 101% | 104% | 113% | 113% | 94.2% | 94% | 97.5% | 86.7% | 96.1% | > 10 µM | > 10 µM | > 10 µM | > 10 µM | > 10 µM | 0 | 0 | 0 | 0 | 0
2 | O=C1C(=O)N(Cc2ccc(Cl)c(Cl)c2)c2ccccc21 [apoptosis-activator-II] | 95.7% | 93% | 103% | 92.6% | 89% | 99.2% | 98.9% | 94% | 94.4% | 30.2% | 106% | 102% | 103% | 102% | 87.8% | 103% | 98% | 108% | 107% | 84.5% | 91.6% | 104% | 93.3% | 96.7% | 84.5% | > 10 µM | 2.5 µM | > 10 µM | > 10 µM | > 10 µM | 0 | 4.7 | 0 | 0.1 | 0.2
3 | C=CC(=O)Nc1cccc(Nc2nc(Nc3ccc(Oc4ccnc(C(=O)NC)c4)cc3)ncc2F)c1 [CNX-774] | 92.8% | 102% | 99.6% | 96.3% | 86.6% | 92.4% | 111% | 98.3% | 83.9% | 32.9% | 98.1% | 98.1% | 103% | 90.7% | 26.9% | 98.6% | 104% | 110% | 91.4% | 31.8% | 98.7% | 105% | 103% | 90.4% | 30% | > 10 µM | 1.58 µM | 2.14 µM | 2.15 µM | 2.07 µM | 0.4 | 6.2 | 5.6 | 5.2 | 5.5
4 | CC1(C)CC[C@]2(C(=O)O)CC[C@]3(C)C(=CC[C@@H]4[C@@]5(C)CC[C@H](O)C(C)(C)[C@@H]5CC[C@]43C)[C@@H]2C1 [oleanolic-acid] | 109% | 110% | 98.3% | 109% | 89.8% | 95.2% | 98.1% | 94.4% | 102% | 94.5% | 96.3% | 94.7% | 94.9% | 95.3% | 95.3% | 106% | 96.2% | 89.9% | 99.9% | 94.7% | 104% | 97.1% | 93% | 104% | 95.6% | > 10 µM | > 10 µM | > 10 µM | > 10 µM | > 10 µM | 0 | 0 | 0 | 0 | 0
